# Reference: US8642508B2, “Complex for use in stabilizing herbicidal compositions and methods for synthesizing and using” (Bayer Cropscience LP, priority 2005, dated 2014)
# What was measured:
# Format in all cases: physicochemical
# [1] = Long-term storage stability, Comparative Example 1 emulsifiable concentrate (triethanolamine buffer); settings: Comparative Example 1 formulation
# Experimental: An emulsifiable concentrate of fenoxaprop-ethyl, mefenpyr diethyl, and pyrasulfotole and fillers was prepared. Triethanolamine, a buffer capable of hydrogen bonding, was selected as the buffer. The mixture of Table 1 was prepared by mixing the liquid ingredients, then the solid ingredients at 50° C.
# (§1) The mixture was tested for long-term storage stability by subjecting separate samples to different temperatures for eight weeks.
# [2] = Long-term storage stability, Example 4 emulsifiable concentrate with bromoxynil mixed esters (triethanolamine buffer); settings: Example 4 formulation
# Experimental: Triethanolamine, a buffer capable of complexing was selected as the buffer. The mixture of Table 7 was prepared by mixing the liquid ingredients, then the solid ingredients at 50° C.
# as §1
# [3] = Long-term storage stability, Comparative Example 3 emulsifiable concentrate (triethylamine buffer); settings: Comparative Example 3 formulation
# Experimental: An emulsifiable concentrate of fenoxaprop p-ethyl, mefenpyr diethyl, and pyrasulfotole was prepared. Triethylamine, a buffer that is not capable of complexing or forming a coordination complex or hydrogen bonding, was selected as the buffer. The mixture of Table 5 was prepared by mixing the liquid ingredients, then the solid ingredients at 50° C.
# as §1
# [4] = Long-term storage stability, Comparative Example 2 mixture (no buffer); settings: Comparative Example 2 formulation
# Experimental: A mixture of fenoxaprop p-ethyl, mefenpyr diethyl, pyrasulfotole, and fillers was prepared in similar manner as in Table 1 but without a buffer system of the invention (see Table 3).
# as §1
# [5] = Long-term storage stability, Comparative Example 6 mixture with bromoxynil mixed esters (no buffer); settings: Comparative Example 6 formulation
# Experimental: as §1
# [6] = Long-term storage stability, Comparative Example 5 emulsifiable concentrate with bromoxynil mixed esters (triethylamine buffer); settings: Comparative Example 5 formulation
# Experimental: An emulsifiable concentrate of fenoxaprop p-ethyl, mefenpyr diethyl, pyrasulfotole and bromoxynil mixed esters was prepared. Triethylamine, a buffer that is not capable of complexing was selected as the buffer. The mixture of Table 9 was prepared by mixing the liquid ingredients, then the solid ingredients at 50° C.
# as §1
# [7] = Long-term storage stability, Example 8 mixture (triethanolamine, without DBSCa); settings: Example 8 formulation
# Experimental: as §1
# [8] = Long-term storage stability 1 year room temperature, Example 7 emulsifiable concentrate (triethanolamine + DBSCa); settings: Example 7 formulation; 1 year @ room temp
# Experimental: In this example, an emulsifiable concentrate of fenoxaprop p-ethyl, mefenpyr diethyl, pyrasulfotole and bromoxynil mixed esters was prepared. Triethanolamine, a buffer that is capable of hydrogen bonding, was selected as the buffer. Dodecylbenzenesulfontate calcium, also known as DBSCa was also used to provide a calcium cation for the complex. The mixture of Table 13 was prepared by mixing the liquid ingredients, then the solid ingredients at 50° C.
# The mixture was tested for long-term storage stability by subjecting separate samples to room temperatures for 1 year.
# [9] = 8 weeks @ 40° C., listed as pyrasulfotole
structure (smiles),measurement,setting,value
"CCOC(=O)C1=NN(c2ccc(Cl)cc2Cl)C(C)(C(=O)OCC)C1 (stereo not drawn) [Mefenpyr diethyl, mefenpyr diethyl]",Avg. Wt % active ingredient,[1]; 8 weeks @ 0° C.,3.77 Wt %
same,Avg. Wt % active ingredient,[1]; 8 weeks @ 40° C.,3.74 Wt %
same,change from 0° C.,[1]; 8 weeks @ 40° C.,−0.65%
same,Avg. Wt % active ingredient,[1]; 8 weeks @ 50° C.,3.72 Wt %
same,change from 0° C.,[1]; 8 weeks @ 50° C.,−1.17%
same,Avg. Wt % active ingredient,[1]; 8 weeks @ room temp.,3.76 Wt %
same,change from 0° C.,[1]; 8 weeks @ room temp.,−0.17%
same,Avg. Wt % active ingredient,[2]; 8 weeks @ 0° C.,1.82 Wt %
same,Avg. Wt % active ingredient,[2]; 8 weeks @ 40° C.,1.80 Wt %
same,change from 0° C.,[2]; 8 weeks @ 40° C.,−0.92%
same,Avg. Wt % active ingredient,[3]; 8 weeks @ 0° C.,3.80 Wt %
same,Avg. Wt % active ingredient,[3]; 8 weeks @ 40° C.,3.72 Wt %
same,change from 0° C.,[3]; 8 weeks @ 40° C.,−2.10%
same,Avg. Wt % active ingredient,[3]; 8 weeks @ 50° C.,3.73 Wt %
same,change from 0° C.,[3]; 8 weeks @ 50° C.,−1.93%
same,Avg. Wt % active ingredient,[3]; 8 weeks @ room temp.,3.77 Wt %
same,change from 0° C.,[3]; 8 weeks @ room temp.,−0.87%
same,Avg. Wt % active ingredient,[4]; 8 weeks @ 0° C.,3.81 Wt %
same,Avg. Wt % active ingredient,[4]; 8 weeks @ 40° C.,3.85 Wt %
same,change from 0° C.,[4]; 8 weeks @ 40° C.,−1.05%
same,Avg. Wt % active ingredient,[4]; 8 weeks @ 50° C.,3.97 Wt %
same,change from 0° C.,[4]; 8 weeks @ 50° C.,−4.20%
same,Avg. Wt % active ingredient,[4]; 8 weeks @ room temp.,4.01 Wt %
same,change from 0° C.,[4]; 8 weeks @ room temp.,+5.24%
same,Avg. Wt % active ingredient,[5]; 8 weeks @ 0° C.,2.98 Wt %
same,Avg. Wt % active ingredient,[5]; 8 weeks @ 40° C.,3.01 Wt %
same,change from 0° C.,[5]; 8 weeks @ 40° C.,1.01%
same,Avg. Wt % active ingredient,[5]; 8 weeks @ room temp.,3.00 Wt %
same,change from 0° C.,[5]; 8 weeks @ room temp.,0.67%
same,Avg. Wt % active ingredient,[6]; 8 weeks @ 0° C.,1.73 Wt %
same,Avg. Wt % active ingredient,[6]; 8 weeks @ 40° C.,1.75 Wt %
same,change from 0° C.,[6]; 8 weeks @ 40° C.,0.88%
same,Avg. Wt % active ingredient,[6]; 8 weeks @ room temp.,1.75 Wt %
same,change from 0° C.,[6]; 8 weeks @ room temp.,0.77%
same,Avg. Wt % active ingredient,[7]; 8 weeks @ 0° C.,1.74 Wt %
same,Avg. Wt % active ingredient,[7]; 8 weeks @ 40° C.,1.72 Wt %
same,change from 0° C.,[7]; 8 weeks @ 40° C.,−1.29%
"CCCCCCC(=O)Oc1c(Br)cc(C#N)cc1Br [Bromoxynil Heptanoate Esters, bromoxynil heptanoate]",Avg. Wt % active ingredient,[8],12.47 Wt %
same,Change from expected,[8],−3.03%
"CCOC(=O)[C@@H](C)Oc1ccc(Oc2nc3ccc(Cl)cc3o2)cc1 [Fenoxaprop p-ethyl, fenoxaprop p-ethyl]",Avg. Wt % active ingredient,[1]; 8 weeks @ 0° C.,9.41 Wt %
same,Avg. Wt % active ingredient,[1]; 8 weeks @ 40° C.,9.00 Wt %
same,change from 0° C.,[1]; 8 weeks @ 40° C.,−4.31%
same,Avg. Wt % active ingredient,[1]; 8 weeks @ 50° C.,8.58 Wt %
same,change from 0° C.,[1]; 8 weeks @ 50° C.,−8.83%
same,Avg. Wt % active ingredient,[1]; 8 weeks @ room temp.,9.34 Wt %
same,change from 0° C.,[1]; 8 weeks @ room temp.,−0.69%
same,Avg. Wt % active ingredient,[2]; 8 weeks @ 0° C.,4.32 Wt %
same,Avg. Wt % active ingredient,[2]; 8 weeks @ 40° C.,3.96 Wt %
same,change from 0° C.,[2]; 8 weeks @ 40° C.,−8.25%
same,Avg. Wt % active ingredient,[3]; 8 weeks @ 0° C.,2.93 Wt %
same,Avg. Wt % active ingredient,[3]; 8 weeks @ 40° C.,2.80 Wt %
same,change from 0° C.,[3]; 8 weeks @ 40° C.,−4.37%
same,Avg. Wt % active ingredient,[3]; 8 weeks @ 50° C.,2.74 Wt %
same,change from 0° C.,[3]; 8 weeks @ 50° C.,−6.39%
same,Avg. Wt % active ingredient,[3]; 8 weeks @ room temp.,2.89 Wt %
same,change from 0° C.,[3]; 8 weeks @ room temp.,−1.19%
same,Avg. Wt % active ingredient,[4]; 8 weeks @ 0° C.,8.20 Wt %
same,Avg. Wt % active ingredient,[4]; 8 weeks @ 40° C.,2.64 Wt %
same,change from 0° C.,[4]; 8 weeks @ 40° C.,−67.80%
same,Avg. Wt % active ingredient,[4]; 8 weeks @ 50° C.,0.91 Wt %
same,change from 0° C.,[4]; 8 weeks @ 50° C.,−88.90%
same,Avg. Wt % active ingredient,[4]; 8 weeks @ room temp.,6.49 Wt %
same,change from 0° C.,[4]; 8 weeks @ room temp.,−20.85%
same,Avg. Wt % active ingredient,[5]; 8 weeks @ 0° C.,6.97 Wt %
same,Avg. Wt % active ingredient,[5]; 8 weeks @ 40° C.,2.34 Wt %
same,change from 0° C.,[5]; 8 weeks @ 40° C.,−66.43%
same,Avg. Wt % active ingredient,[5]; 8 weeks @ room temp.,6.15 Wt %
same,change from 0° C.,[5]; 8 weeks @ room temp.,−11.76%
same,Avg. Wt % active ingredient,[8],7.95 Wt %
same,Change from expected,[8],−0.625%
same,Avg. Wt % active ingredient,[6]; 8 weeks @ 0° C.,4.30 Wt %
same,Avg. Wt % active ingredient,[6]; 8 weeks @ 40° C.,4.33 Wt %
same,change from 0° C.,[6]; 8 weeks @ 40° C.,0.68%
same,Avg. Wt % active ingredient,[6]; 8 weeks @ room temp.,4.33 Wt %
same,change from 0° C.,[6]; 8 weeks @ room temp.,0.07%
same,Avg. Wt % active ingredient,[7]; 8 weeks @ 0° C.,4.33 Wt %
same,Avg. Wt % active ingredient,[7]; 8 weeks @ 40° C.,4.00 Wt %
same,change from 0° C.,[7]; 8 weeks @ 40° C.,−5.75%
"Cc1nn(C)c(O)c1C(=O)c1ccc(C(F)(F)F)cc1S(C)(=O)=O [Pyrasulfotole, pyrasulfotole]",Avg. Wt % active ingredient,[1]; 8 weeks @ 0° C.,5.57 Wt %
same,Avg. Wt % active ingredient,[1]; 8 weeks @ 40° C.,5.53 Wt %
same,change from 0° C.,[1]; 8 weeks @ 40° C.,−0.82%
same,Avg. Wt % active ingredient,[1]; 8 weeks @ 50° C.,5.51 Wt %
same,change from 0° C.,[1]; 8 weeks @ 50° C.,−1.12%
same,Avg. Wt % active ingredient,[1]; 8 weeks @ room temp.,5.67 Wt %
same,change from 0° C.,[1]; 8 weeks @ room temp.,1.71%
same,Avg. Wt % active ingredient,[2]; 8 weeks @ 0° C.,1.42 Wt %
same,Avg. Wt % active ingredient,[2]; 8 weeks @ 40° C.,1.40 Wt %
same,change from 0° C.,[2]; 8 weeks @ 40° C.,−1.30%
same,change from 0° C.,[2]; [9],−1.30%
same,Avg. Wt % active ingredient,[3]; 8 weeks @ 0° C.,5.38 Wt %
same,Avg. Wt % active ingredient,[3]; 8 weeks @ 40° C.,5.43 Wt %
same,change from 0° C.,[3]; 8 weeks @ 40° C.,0.85%
same,Avg. Wt % active ingredient,[3]; 8 weeks @ 50° C.,5.60 Wt %
same,change from 0° C.,[3]; 8 weeks @ 50° C.,4.07%
same,Avg. Wt % active ingredient,[3]; 8 weeks @ room temp.,5.46 Wt %
same,change from 0° C.,[3]; 8 weeks @ room temp.,1.51%
same,Avg. Wt % active ingredient,[4]; 8 weeks @ 0° C.,4.76 Wt %
same,Avg. Wt % active ingredient,[4]; 8 weeks @ 40° C.,4.69 Wt %
same,change from 0° C.,[4]; 8 weeks @ 40° C.,−1.47%
same,Avg. Wt % active ingredient,[4]; 8 weeks @ 50° C.,4.54 Wt %
same,change from 0° C.,[4]; 8 weeks @ 50° C.,−4.62%
same,Avg. Wt % active ingredient,[4]; 8 weeks @ room temp.,4.75 Wt %
same,change from 0° C.,[4]; 8 weeks @ room temp.,−0.21%
same,Avg. Wt % active ingredient,[5]; 8 weeks @ 0° C.,3.26 Wt %
same,Avg. Wt % active ingredient,[5]; 8 weeks @ 40° C.,2.81 Wt %
same,change from 0° C.,[5]; 8 weeks @ 40° C.,−13.8%
same,Avg. Wt % active ingredient,[5]; 8 weeks @ room temp.,3.01 Wt %
same,change from 0° C.,[5]; 8 weeks @ room temp.,−7.67%
same,Avg. Wt % active ingredient,[8],3.14 Wt %
same,Change from expected,[8],−3.083%
same,Avg. Wt % active ingredient,[6]; 8 weeks @ 0° C.,1.38 Wt %
same,Avg. Wt % active ingredient,[6]; 8 weeks @ 40° C.,1.26 Wt %
same,change from 0° C.,[6]; 8 weeks @ 40° C.,−9.04%
same,change from 0° C.,[6]; [9],−9.04%
same,Avg. Wt % active ingredient,[6]; 8 weeks @ room temp.,1.30 Wt %
same,change from 0° C.,[6]; 8 weeks @ room temp.,−5.80%
same,Avg. Wt % active ingredient,[7]; 8 weeks @ 0° C.,1.74 Wt %
same,Avg. Wt % active ingredient,[7]; 8 weeks @ 40° C.,1.65 Wt %
same,change from 0° C.,[7]; 8 weeks @ 40° C.,−4.81%
"CCCCCCCC(=O)Oc1c(Br)cc(C#N)cc1Br [Bromoxynil Octanoate, bromoxynil octanoate]",Avg. Wt % active ingredient,[8],13.08 Wt %
same,Change from expected,[8],−3.083%
same,Avg. Wt % active ingredient,[6]; 8 weeks @ 0° C.,5.67 Wt %
same,Avg. Wt % active ingredient,[6]; 8 weeks @ 40° C.,5.02 Wt %
same,change from 0° C.,[6]; 8 weeks @ 40° C.,−11.52%
same,Avg. Wt % active ingredient,[6]; 8 weeks @ room temp.,5.65 Wt %
same,change from 0° C.,[6]; 8 weeks @ room temp.,−0.41%
